Patent publication US4684664A, “Derivatives of β-(4-isocyano-1,2,3,4-diepoxycyclopentyl) acrylic acid” (Kureha Kagaku Kogyo Kabushiki Kaisha, priority 1984, dated 1987)
In brackets after ≈: the same amount, converted by molar mass.

Experiments:
Format in all cases: cell-based
[1] = system: Staphylococcus aureus FDA 209PJc-1; test: Antibacterial activity, agar-dilution MIC, organism No. 1; settings: Staphylococcus aureus, FDA209PJC1; Organism No. 1, bouillon-agar; read-out: Minimum Inhibitory Concentration
Method in brief: (§1)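 Minimum inhibitory concentration determined on solid bouillon agar by the agar-dilution technique, with values stated as μg/ml.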

[2] = system: Staphylococcus aureus Terajima; test: Antibacterial activity, agar-dilution MIC, organism No. 2; settings: Staphylococcus aureus; Organism No. 2, bouillon-agar; read-out: Minimum Inhibitory Concentration
Method in brief: as §1

[3] = system: Staphylococcus aureus MS 353; test: Antibacterial activity, agar-dilution MIC, organism No. 3; settings: Staphylococcus aureus, MS353; Organism No. 3, bouillon-agar; read-out: Minimum Inhibitory Concentration
Method in brief: as §1

[4] = system: Streptococcus pyogenes Cook; test: Antibacterial activity, agar-dilution MIC, organism No. 4; settings: Streptococcus pyogenes; Organism No. 4, bouillon-agar; read-out: Minimum Inhibitory Concentration
Method in brief: as §1

[5] = system: Escherichia coli NIHJ-JC-2; test: Antibacterial activity, agar-dilution MIC, organism No. 5; settings: Escherichia coli, NIHJJC2; Organism No. 5, bouillon-agar; read-out: Minimum Inhibitory Concentration
Method in brief: as §1

[6] = system: Escherichia coli K12 C600 IAM 1264; test: Antibacterial activity, agar-dilution MIC, organism No. 6; settings: Escherichia coli, IAM1264; Organism No. 6, bouillon-agar; read-out: Minimum Inhibitory Concentration
Method in brief: as §1

[7] = system: Klebsiella pneumoniae PCI-602; test: Antibacterial activity, agar-dilution MIC, organism No. 7; settings: Klebsiella pneumoniae, PCI602; Organism No. 7, bouillon-agar; read-out: Minimum Inhibitory Concentration
Method in brief: as §1

[8] = system: Salmonella typhimurium IID 971; test: Antibacterial activity, agar-dilution MIC, organism No. 8; settings: Salmonella enterica; Organism No. 8, bouillon-agar; read-out: Minimum Inhibitory Concentration
Method in brief: as §1

[9] = system: Salmonella typhi 901; test: Antibacterial activity, agar-dilution MIC, organism No. 9; settings: Salmonella enterica, TYPHI, read-out: Minimum Inhibitory Concentration
Method in brief: as §1

[10] = system: Salmonella paratyphi-A 1015; test: Antibacterial activity, agar-dilution MIC, organism No. 10; settings: Salmonella enterica, PARATYPHI, read-out: Minimum Inhibitory Concentration
Method in brief: as §1

[11] = system: Salmonella shottmuelleri 8006; test: Antibacterial activity, agar-dilution MIC, organism No. 11; settings: Salmonella, 8006; Organism No. 11, bouillon-agar; read-out: Minimum Inhibitory Concentration
Method in brief: as §1

[12] = system: Salmonella enteritidis G 14; test: Antibacterial activity, agar-dilution MIC, organism No. 12; settings: Salmonella enterica, ENTERITIDIS; Organism No. 12, bouillon-agar; read-out: Minimum Inhibitory Concentration
Method in brief: as §1

[13] = system: Serratia marcescens IAM 1184; test: Antibacterial activity, agar-dilution MIC, organism No. 13; settings: Serratia marcescens, IAM1184; Organism No. 13, bouillon-agar; read-out: Minimum Inhibitory Concentration
Method in brief: as §1

[14] = system: Bacillus subtilis ATCC 6633; test: Antibacterial activity, agar-dilution MIC, organism No. 14; settings: Bacillus subtilis, ATCC6633; Organism No. 14, bouillon-agar; read-out: Minimum Inhibitory Concentration
Method in brief: as §1

[15] = system: Pseudomonas aeruginosa IFO 3445; test: Antibacterial activity, agar-dilution MIC, organism No. 15; settings: Pseudomonas aeruginosa, IFO3445; Organism No. 15, bouillon-agar; read-out: Minimum Inhibitory Concentration
Method in brief: as §1

[16] = system: Pseudomonas aeruginosa NCTC 10490; test: Antibacterial activity, agar-dilution MIC, organism No. 16; settings: Pseudomonas aeruginosa, NCTC10490; Organism No. 16, bouillon-agar; read-out: Minimum Inhibitory Concentration
Method in brief: as §1

[17] = system: Pseudomonas aeruginosa PAO 1; test: Antibacterial activity, agar-dilution MIC, organism No. 17; settings: Pseudomonas aeruginosa, PAO1; Organism No. 17, bouillon-agar; read-out: Minimum Inhibitory Concentration
Method in brief: as §1

[18] = system: Proteus morganii IFO 3848; test: Antibacterial activity, agar-dilution MIC, organism No. 18; settings: Morganella morganii, IFO3848; Organism No. 18, bouillon-agar; read-out: Minimum Inhibitory Concentration
Method in brief: as §1

[19] = system: Proteus mirabilis IFO 3849; test: Antibacterial activity, agar-dilution MIC, organism No. 19; settings: Proteus mirabilis, IFO3849; Organism No. 19, bouillon-agar; read-out: Minimum Inhibitory Concentration
Method in brief: as §1

[20] = system: Proteus vulgaris OX-19; test: Antibacterial activity, agar-dilution MIC, organism No. 20; settings: Proteus vulgaris, OX19; Organism No. 20, bouillon-agar; read-out: Minimum Inhibitory Concentration
Method in brief: as §1

[21] = system: Proteus vulgaris HX-19; test: Antibacterial activity, agar-dilution MIC, organism No. 21; settings: Proteus vulgaris, HX19; Organism No. 21, bouillon-agar; read-out: Minimum Inhibitory Concentration
Method in brief: as §1

[22] = system: Proteus rettgeri IFO 3850; test: Antibacterial activity, agar-dilution MIC, organism No. 22; settings: Providencia rettgeri, IFO3850; Organism No. 22, bouillon-agar; read-out: Minimum Inhibitory Concentration
Method in brief: as §1

[23] = system: Enterobacter aerogenes ATCC 13048; test: Antibacterial activity, agar-dilution MIC, organism No. 23; settings: Klebsiella aerogenes, ATCC13048; Organism No. 23, bouillon-agar; read-out: Minimum Inhibitory Concentration
Method in brief: as §1

[24] = system: Enterobacter cloacae 963; test: Antibacterial activity, agar-dilution MIC, organism No. 24; settings: Enterobacter cloacae, 963; Organism No. 24, bouillon-agar; read-out: Minimum Inhibitory Concentration
Method in brief: as §1

[25] = system: Micrococcus luteus ATCC 9341; test: Antibacterial activity, agar-dilution MIC, organism No. 25; settings: Micrococcus luteus, ATCC9341; Organism No. 25, bouillon-agar; read-out: Minimum Inhibitory Concentration
Method in brief: as §1

[26] = system: Streptococcus pyogenes IFO 3340; test: Antibacterial activity, agar-dilution MIC, organism No. 26; settings: Streptococcus pyogenes, IFO3340; Organism No. 26, bouillon-agar; read-out: Minimum Inhibitory Concentration
Method in brief: as §1

[27] = system: Streptococcus faecium IFO 3826; test: Antibacterial activity, agar-dilution MIC, organism No. 27; settings: Enterococcus faecium, IFO3826; Organism No. 27, bouillon-agar; read-out: Minimum Inhibitory Concentration
Method in brief: as §1

[28] = system: Mycoplasma pneumoniae IID817; test: Antimycoplasmal activity, MIC by phenol red colour change, organism No. 28; settings: Mycoplasma, IID817; Organism No. 28, PPLO broth + 1% glucose, 37° C.; read-out: Minimum Inhibitory Concentration (MIC)
Protocol: Mycoplasma pneumoniae IID817 was used as the test microorganism in a culture medium prepared by adding 1% of glucose to "PPLO broth (manufactured by Difco Co.) liquid culture medium" at 37° C. with phenol red as an indicator, thereby culturing the test microorganism.

[29] = system: Candida albicans IAM 4905; test: Antifungal activity, agar-dilution MIC, organism No. 29; settings: Candida albicans, IAM4905; Organism No. 29, bouillon-agar; read-out: Minimum Inhibitory Concentration
Method in brief: as §1

[30] = system: Aspergillus niger IFO 6342; test: Antifungal activity, agar-dilution MIC, organism No. 30; settings: Aspergillus niger, IFO6342; Organism No. 30, bouillon-agar; read-out: Minimum Inhibitory Concentration
Method in brief: as §1

[C-]#[N+]C12CC3(/C=C/C(=O)OCC(=O)c4ccccc4)OC3C1O2 (stereo not drawn) [Compound No. 3]
MIC [1]: 0.2 µg/mL (≈ 0.642 µM) | MIC [2]: 3.13 µg/mL (≈ 10.1 µM) | MIC [3]: 0.05 µg/mL (≈ 0.161 µM) | MIC [4]: 6.25 µg/mL (≈ 20.1 µM) | MIC [5]: 50 µg/mL (≈ 161 µM) | MIC [6]: 50 µg/mL (≈ 161 µM) | MIC [7]: 6.25 µg/mL (≈ 20.1 µM) | MIC [8]: 50 µg/mL (≈ 161 µM) | MIC [9]: 12.5 µg/mL (≈ 40.2 µM) | MIC [10]: 6.25 µg/mL (≈ 20.1 µM) | MIC [11]: 6.25 µg/mL (≈ 20.1 µM) | MIC [12]: 12.5 µg/mL (≈ 40.2 µM) | MIC [13]: > 100 µg/mL | MIC [14]: 50 µg/mL (≈ 161 µM) | MIC [15]: > 100 µg/mL | MIC [16]: > 100 µg/mL | MIC [17]: > 100 µg/mL | MIC [18]: 3.13 µg/mL (≈ 10.1 µM) | MIC [19]: 50 µg/mL (≈ 161 µM) | MIC [20]: 1.56 µg/mL (≈ 5.01 µM) | MIC [21]: 0.05 µg/mL (≈ 0.161 µM) | MIC [22]: 50 µg/mL (≈ 161 µM) | MIC [23]: > 100 µg/mL | MIC [24]: > 100 µg/mL | MIC [25]: 0.2 µg/mL (≈ 0.642 µM) | MIC [26]: 6.25 µg/mL (≈ 20.1 µM) | MIC [27]: 3.13 µg/mL (≈ 10.1 µM) | MIC [28]: 0.05 µg/mL | MIC [29]: 0.8 µg/mL (≈ 2.57 µM) | MIC [30]: 3.13 µg/mL (≈ 10.1 µM)

[C-]#[N+]C12CC3(/C=C/C(=O)Nc4ccc(S(N)(=O)=O)cc4)OC3C1O2 (stereo not drawn) [compound 63]
MIC [1]: 3.13 µg/mL (≈ 9.01 µM) | MIC [2]: 25 µg/mL (≈ 72 µM) | MIC [3]: 3.13 µg/mL (≈ 9.01 µM) | MIC [4]: > 200 µg/mL | MIC [5]: > 200 µg/mL | MIC [6]: > 200 µg/mL | MIC [7]: 3.13 µg/mL (≈ 9.01 µM) | MIC [8]: 100 µg/mL (≈ 288 µM) | MIC [9]: 50 µg/mL (≈ 144 µM) | MIC [10]: 12.5 µg/mL (≈ 36 µM) | MIC [11]: 12.5 µg/mL (≈ 36 µM) | MIC [12]: 25 µg/mL (≈ 72 µM) | MIC [13]: > 200 µg/mL | MIC [14]: 50 µg/mL (≈ 144 µM) | MIC [15]: > 200 µg/mL | MIC [16]: > 200 µg/mL | MIC [17]: > 200 µg/mL | MIC [18]: 3.13 µg/mL (≈ 9.01 µM) | MIC [19]: > 200 µg/mL | MIC [20]: 1.56 µg/mL (≈ 4.49 µM) | MIC [21]: 1.56 µg/mL (≈ 4.49 µM) | MIC [22]: 6.25 µg/mL (≈ 18 µM) | MIC [23]: > 200 µg/mL | MIC [24]: > 200 µg/mL | MIC [25]: 25 µg/mL (≈ 72 µM) | MIC [26]: 6.25 µg/mL (≈ 18 µM) | MIC [27]: > 200 µg/mL | MIC [28]: < 0.2 µg/mL | MIC [29]: 100 µg/mL (≈ 288 µM) | MIC [30]: 100 µg/mL (≈ 288 µM)

[C-]#[N+]C12CC3(/C=C/C(=O)NOC)OC3C1O2 (stereo not drawn) [compound 81]
MIC [1]: 25 µg/mL (≈ 113 µM) | MIC [2]: 25 µg/mL (≈ 113 µM) | MIC [3]: 12.5 µg/mL (≈ 56.3 µM) | MIC [4]: 25 µg/mL (≈ 113 µM) | MIC [5]: 12.5 µg/mL (≈ 56.3 µM) | MIC [6]: 12.5 µg/mL (≈ 56.3 µM) | MIC [7]: 200 µg/mL (≈ 900 µM) | MIC [8]: 12.5 µg/mL (≈ 56.3 µM) | MIC [9]: 6.25 µg/mL (≈ 28.1 µM) | MIC [10]: 6.25 µg/mL (≈ 28.1 µM) | MIC [11]: 12.5 µg/mL (≈ 56.3 µM) | MIC [12]: 6.25 µg/mL (≈ 28.1 µM) | MIC [13]: 200 µg/mL (≈ 900 µM) | MIC [14]: 50 µg/mL (≈ 225 µM) | MIC [15]: 200 µg/mL (≈ 900 µM) | MIC [16]: 200 µg/mL (≈ 900 µM) | MIC [17]: > 200 µg/mL | MIC [18]: 25 µg/mL (≈ 113 µM) | MIC [19]: 100 µg/mL (≈ 450 µM) | MIC [20]: 50 µg/mL (≈ 225 µM) | MIC [21]: 6.25 µg/mL (≈ 28.1 µM) | MIC [22]: 100 µg/mL (≈ 450 µM) | MIC [23]: > 200 µg/mL | MIC [24]: > 200 µg/mL | MIC [25]: 100 µg/mL (≈ 450 µM) | MIC [26]: 6.25 µg/mL (≈ 28.1 µM) | MIC [27]: 12.5 µg/mL (≈ 56.3 µM) | MIC [28]: < 0.2 µg/mL | MIC [29]: 12.5 µg/mL (≈ 56.3 µM) | MIC [30]: 6.25 µg/mL (≈ 28.1 µM)
